Reference: patent US20240294572A1, “Antimicrobial Peptides” (priority 2021, published 2024)
≈ marks a conversion by molar mass, not a printed value. Read-outs that look alike come from different tables or passages of the source. Non-standard residues stand in square brackets, D forms with d. Residues, ends and D or L forms follow the SMILES beside them. *: point of attachment. Decanoyl = CCCCCCCCCC(=O)*

How the values were obtained:
E. coli ATCC 25922 = assay type: cell-based
Procedure, shortened: (§1)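 Broth microdilution after CLSI M07-A10, modified: 2-fold peptide dilutions plus log-phase bacteria diluted to 0.001 OD, incubated overnight at 37° C, absorbance read at 630 nm. Medium effects probed with varied pH, NaCl or human serum in TSB (control pH 7.4), with 10%, 50%, 100% TSB, and with MHB.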

S. aureus USA300 LAC [1] = assay type: cell-based
Procedure, shortened: as §1

[2] = tested on: Klebsiella pneumonia ATCC 13883; test: Antibacterial broth microdilution MIC; assay type: cell-based
Procedure, shortened: (§2)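 Broth microdilution per CLSI M07-A10 with minor changes: 2-fold peptide dilutions plus log-phase bacteria (OD600 ~0.5) diluted to 0.001 OD, in TSB. Incubated overnight at 37 °C; growth read at 630 nm.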

[3] = tested on: human red blood cells (hRBCs); assay type: cell-based
Procedure, shortened: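 Saline-washed human erythrocytes at 2% (v/v) incubated with peptides at various concentrations, 37° C, 1 hour. Haemoglobin release read at 545 nm in supernatant after centrifugation; 1% Triton X-100 = 100% lysis, PBS = 0%. HC50 is the peptide concentration giving 50% lysis; CSI = HC50/MIC against MRSA.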

S. aureus Mu50 = assay type: cell-based
Procedure, shortened: as §2

S. aureus Newman = assay type: cell-based
Procedure, shortened: as §2

S. aureus USA200 = assay type: cell-based
Procedure, shortened: as §2

S. aureus USA400 = assay type: cell-based
Procedure, shortened: as §2

[4] = tested on: trypsin, chymotrypsin, pancreas elastase, S. aureus V8 protease, and fungal proteinase K
Description: The peptide was incubated with various proteases in 10 mM PBS buffer (pH 7.4) at 37° C. for 24 hours. Aliquots (20 μL) of the reaction solutions were taken at 3 and 24 hours. The reaction was then stopped by mixing with 20 μL of 2×SDS loading buffer and boiling in a water bath for ˜10 minutes. For the SDS-PAGE analysis, 10 μL of each sample was loaded to the well of a 5% stacking/18% resolving tricine gel and run at a constant current of 35 mA. The gels were stained using Coomassie Brilliant Blue.

S. aureus USA300 LAC [5] = test: Neutropenic murine infection model, systemic efficacy; assay type: in vivo, C57BL/6 mice; conditions: 5 mg/kg i.p. single dose 2 hours post infection, versus untreated
Description: Female C57BL/6 mice (6 weeks old) were purchased from Charles River. After environmental adaptation, mice were induced to be neutropenic by the administration of two doses of cyclophosphamide on Day 1 (150 mg/kg) and Day 4 (100 mg/kg). On Day 5, mice were infected with S. aureus USA300 (˜2×10^6 CFU per mouse) via intraperitoneal injection (i.p.) (Lakshmaia, et al. (2020) Proc. Natl. Acad. Sci., 117:19446-19454). For the treatment groups, mice were i.p. treated 2 hours post infection with peptides at a single dose of 5 mg/kg. This bacterial strain was able to disseminate to different organs 2 hours post infection (Lakshmaia, et al. (2020) Proc. Natl. Acad. Sci., 117:19446-19454). At the end of the experiments, all the animals were sacrificed according to institutional guidelines. Organs, including spleen, liver, lung, and kidney, were harvested, weighed, and placed in 1 mL of sterile PBS and stored on ice. Harvested organs were subsequently homogenized using an Omni Homogenizer. Proper dilutions were made to get countable colonies. The homogenates were plated onto blood agar plates and incubated overnight at 37° C. The CFU of each murine tissue was plotted as an individual point, and error bars represent the deviation within the experimental group. * indicates p<0.05, **p<0.01, ***p<0.001, and NS means no significance (determined by Mann-Whitney test).

[6] = tested on: S. aureus USA300 transposon mutant SAUSA300_1336; test: Antimicrobial susceptibility of transposon mutant; assay type: cell-based; parameters: key: No = no MIC changes of C10-KR8d against the WT and the mutant S. aureus strains measured in 50% TSB; conditions: mutant SAUSA300_1336 versus WT
Description: (§3) The antimicrobial susceptibility of over 20 MRSA transposon mutants were also tested, based on a transposon library screening, in the presence of LL-37 peptides (Golla, et al. (2020) ACS Infect. Dis., 6:1866-1881). This Nebraska Transposon Mutant Library of S. aureus USA300 consists of 1920 mutants, each with one nonessential gene disabled due to a transposon insertion (Fey, et al. (2013) mBio 4:e00537-12). The correct insertion of the transposon to each Staph mutant had been verified (Golla, et al. (2020) ACS Infect. Dis., 6:1866-1881). Antimicrobial susceptibility to the new peptide C10-KR8d was evaluated in the same manner as MIC assays. Susceptible strains could be inhibited at a peptide concentration lower than the MIC against the wild strain S. aureus JE2.

[7] = tested on: S. aureus USA300 transposon mutant SAUSA300_1867; test: Antimicrobial susceptibility of transposon mutant; assay type: cell-based; parameters: key: No = no MIC changes of C10-KR8d against the WT and the mutant S. aureus strains measured in 50% TSB; conditions: mutant SAUSA300_1867 versus WT
Description: as §3

Structure (SMILES) | MIC (μM) EC (E. coli ATCC 25922) [µM] | MIC in the presence of 5 or 10% human serum (S. aureus USA300 LAC [1]; 5 or 10% human serum) [µM] | MIC (μM) SA (S. aureus USA300 LAC [1]; USA300) [µM] | Minimal inhibitory concentration (MIC), pH = 6.8 (S. aureus USA300 LAC [1]; USA300, pH 6.8) | MIC (μM) KP [2] [µM] | HC50 [3] [µM] | Minimal inhibitory concentration, Mu50 (S. aureus Mu50) [µM] | Minimal inhibitory concentration, Newman (S. aureus Newman) [µM] | Minimal inhibitory concentration, USA200 (S. aureus USA200) [µM] | Minimal inhibitory concentration, USA400 (S. aureus USA400) [µM] | time to degradation by proteases ([4]; nearly all the cases, except for S. aureus V8 protease, 37° C., PBS pH 7.4) [h] | Minimal inhibitory concentration against E. coli, 100% TSB (E. coli ATCC 25922) [µM] | reduction of anti-MRSA activity (S. aureus USA300 LAC [1]; 10% serum, pH 7.4) [fold] | MIC values (Table 4, text summary) (S. aureus USA300 LAC [1]; USA300) [µM] | HC50 ([3]; red cells of human, 1 h) [µM] | CFU decrease in mouse lung and liver (S. aureus USA300 LAC [5]) | CFU decrease in spleen and kidney (S. aureus USA300 LAC [5]) | Susceptible? [6] | Susceptible? [7] | stability to five proteases ([4]; trypsin, chymotrypsin, pancreas elastase, S. aureus V8 protease, fungal proteinase K, 3 and 24 hours)
CCCCCCCCCC(=O)N[C@@H](CCCCN)C(=O)N[C@@H](CCCNC(=N)N)C(=O)N[C@H](C(=O)N[C@@H](Cc1c[nH]c2ccccc12)C(=O)N[C@@H](CCC(N)=O)C(=O)N[C@@H](CCCNC(=N)N)C(=O)N[C@H](C(=O)N[C@@H](CCCCN)C(N)=O)[C@@H](C)CC)[C@@H](C)CC [Peptide C10-KR8] (Decanoyl-KRIWQRIK-NH2) | 12.5 (≈ 16 µg/mL) | > 25 | 1.5 to 3.1 | 3.1-6.2 μM | 50 (≈ 64 µg/mL) | 300 | 3.1 (≈ 3.97 µg/mL) | 3.1 (≈ 3.97 µg/mL) | 3.1 (≈ 3.97 µg/mL) | 3.1 (≈ 3.97 µg/mL) | ≤ 3 | – | – | – | – | – | – | – | – | –
CCCCCCCCCC(=O)N[C@H](CCCCN)C(=O)N[C@H](CCCNC(=N)N)C(=O)N[C@@H](C(=O)N[C@H](Cc1c[nH]c2ccccc12)C(=O)N[C@H](CCC(N)=O)C(=O)N[C@H](CCCNC(=N)N)C(=O)N[C@@H](C(=O)N[C@H](CCCCN)C(N)=O)[C@H](C)CC)[C@H](C)CC [Peptide C10-KR8d] (Decanoyl-[dK][dR][dI][dW][dQ][dR][dI][dK]-NH2) | 12.5 (≈ 16 µg/mL) | – | 1.5 to 3.1 | – | 25 (≈ 32 µg/mL) | – | 3.1 (≈ 3.97 µg/mL) | 1.6 (≈ 2.05 µg/mL) | 1.6 (≈ 2.05 µg/mL) | 1.6 (≈ 2.05 µg/mL) | – | 6.2 (≈ 7.94 µg/mL) | 2 | 3.1 to 6.2 | 300 | 0.5-1 log | not in spleen and kidney | No | No | resistant to the five proteases
